ChEMBL document CHEMBL3352035, “Design and synthesis of new 7-(N-substituted-methyl)-camptothecin derivatives as potent cytotoxic agents” (Bioorg Med Chem Lett, 2014)

Legend:
[1] = test system: KB; assay: Cytotoxicity against human KB cells after 72 hrs sulforhodamine B colorimetric assay
[2] = test system: A549; assay: Ratio of topotecan IC50 to compound IC50 for human A549 cells after 72 hrs sulforhodamine B colorimetric assay; type: functional
[3] = Ratio of topotecan IC50 to compound IC50 for multidrug-resistant human KBVIN cells after 72 hrs sulforhodamine B colorimetric assay; type: functional
[4] = test system: A549; assay: Cytotoxicity against human A549 cells after 72 hrs sulforhodamine B colorimetric assay; conditions: A549, 72 h
[5] = cells; conditions: Homo sapiens, KBVIN, 72 h
Description: Cytotoxicity against multidrug-resistant human KBVIN cells after 72 hrs sulforhodamine B colorimetric assay

[6] = test system: MDA-MB-231; assay: cells; conditions: Homo sapiens, MDA-MB-231, 72 h
Description: Cytotoxicity against human MDA-MB-231 cells after 72 hrs sulforhodamine B colorimetric assay

Row | SMILES | IC50 [1] [nM] | Ratio IC50 [2] | Ratio IC50 [3] | IC50 [4] [nM] | IC50 [5] [nM] | IC50 [6] [nM]
1 | CC[C@@]1(O)C(=O)OCc2c1cc1n(c2=O)Cc2c-1nc1ccccc1c2CNc1ccc(F)cc1 | 5 | 7 | 7 | 6.3 | 13.2 | 30
2 | CC[C@@]1(O)C(=O)OCc2c1cc1n(c2=O)Cc2c-1nc1ccccc1c2CNc1ccc(C)cc1 | 81.7 | – | – | 58.7 | 79.5 | 92.7
3 | CCCNCc1c2c(nc3ccccc13)-c1cc3c(c(=O)n1C2)COC(=O)[C@]3(O)CC | 15 | 7 | 7 | 4.8 | 21.7 | 31.6
4 | CC[C@@]1(O)C(=O)OCc2c1cc1n(c2=O)Cc2c-1nc1ccccc1c2CN1CCCC1 | 37.1 | – | – | 15.5 | 20.8 | 60.9
5 | CC[C@@]1(O)C(=O)OCc2c1cc1n(c2=O)Cc2c-1nc1ccccc1c2CN1CCCCC1 | 49.9 | – | – | 21.9 | 20.5 | 69.9
6 | CC[C@@]1(O)C(=O)OCc2c1cc1n(c2=O)Cc2c-1nc1ccccc1c2CNCc1ccccc1 | 180 | – | – | 122 | 117 | 337
7 | CC[C@@]1(O)C(=O)OCc2c1cc1n(c2=O)Cc2c-1nc1ccccc1c2CNc1ccc(OC)cc1 | 75.8 | – | – | 47 | 77.3 | 84.2
8 | CC(=O)O[C@H]1C(=O)[C@@]2(C)[C@H]([C@H](OC(=O)c3ccccc3)[C@]3(O)C[C@H](OC(=O)[C@H](O)[C@@H](NC(=O)c4ccccc4)c4ccccc4)C(C)=C1C3(C)C)[C@]1(OC(C)=O)CO[C@@H]1C[C@@H]2O [PACLITAXEL] | 3.9 | – | – | 5.7 | 1440 | 6.6
9 | CC[C@@]1(O)C(=O)OCc2c1cc1n(c2=O)Cc2c-1nc1ccccc1c2CNc1ccccc1OC | 4.6 | 7 | 7 | 2.3 | 14.9 | 26.4
10 | CC[C@@]1(O)C(=O)OCc2c1cc1n(c2=O)Cc2c-1nc1ccccc1c2CNCCO | 208 | – | – | 150 | 183 | 378
11 | CC[C@@]1(O)C(=O)OCc2c1cc1n(c2=O)Cc2c-1nc1ccccc1c2CNC1CCCCC1 | 36.2 | – | – | 18.8 | 16.5 | 53.2
12 | CC[C@@]1(O)C(=O)OCc2c1cc1n(c2=O)Cc2c-1nc1ccccc1c2CNc1cccc2ccccc12 | 61.5 | – | – | 36.2 | 78 | 64
13 | CC[C@@]1(O)C(=O)OCc2c1cc1n(c2=O)Cc2c-1nc1ccccc1c2CN1CCN(C)CC1 | 89.5 | – | – | 62.2 | 274 | 110
14 | CC[C@@]1(O)C(=O)OCc2c1cc1n(c2=O)Cc2c-1nc1ccccc1c2CNc1ccccn1 | 78.6 | – | – | 51.4 | 70.6 | 108
15 | CC[C@@]1(O)C(=O)OCc2c1cc1n(c2=O)Cc2c-1nc1ccccc1c2CNc1ccccc1Cl | 37.1 | – | – | 17 | 12.8 | 57.6
16 | CC[C@@]1(O)C(=O)OCc2c1cc1n(c2=O)Cc2c-1nc1ccccc1c2CNc1ccc(Br)cc1 | 82.1 | – | – | 59.2 | 63.3 | 114
17 | CC[C@@]1(O)C(=O)OCc2c1cc1n(c2=O)Cc2c-1nc1ccccc1c2CNc1ccccc1 | 78.3 | – | – | 53.2 | 47.9 | 78.1
18 | CC[C@@]1(O)C(=O)OCc2c1cc1n(c2=O)Cc2c-1nc1ccccc1c2CNc1ccc(Cl)cc1 | 39.7 | – | – | 39.1 | 12.9 | 64.4
19 | CC[C@@]1(O)C(=O)OCc2c1cc1n(c2=O)Cc2c-1nc1ccccc1c2CN(C(C)C)C(C)C | 813 | – | – | 534 | 1060 | 1110
20 | CC[C@@]1(O)C(=O)OCc2c1cc1n(c2=O)Cc2c-1nc1ccccc1c2CNc1cccc(Cl)c1 | 71.3 | – | – | 50.4 | 68.8 | 96.1
